Measurements from patent publication US12390483B2, “Compounds and methods for treating neurological and cardiovascular conditions” (Astrocyte Pharmaceuticals, Inc., priority 2016, dated 2025).
Blank lines part the entries; values can stand above or below the compound they belong to.

Experiments:
[1] = Pharmacokinetics of MRS4322 following intraperitoneal administration of MRS2365 to mice; format: in vivo; conditions: for Plasma Concentration by Subject / Plasma Concentration Mean / Brain Concentration by Subject / Brain Concentration Mean: MRS4322 in mice after MRS2365 0.24 mg/kg i.p.; for Plasma Concentration by Subject / Brain Concentration by Subject: subjects A-C; for Plasma Concentration by Subject / Plasma Concentration Mean: BLQ = below 2.26 ng/mL; for Brain Concentration by Subject / Brain Concentration Mean: BLQ = below 9.40 ng/g
Experimental: Animals: Female C576BL/6J mice weighing approximately 0.02 Kg were used for this study, supplied by the University of Texas Health Sciences Center (San Antonio, TX). All studies were conducted under approved University of Texas Health Sciences Center IACUC protocols.
Drug Administration: MRS2365 was solubilized in phosphate-buffered saline and then diluted in phosphate-buffered saline to prepare dosing solution. Final dosing solution concentration of MRS2365 was 100 μM. A 100 μL volume of dosing solution was administered intraperitoneally to each mouse per 20 gram body weight; MRS2365 was administered intraperitoneally at 0.5 μmol/kg or 0.24 mg/kg. Three mice were administered MRS2365 for each sampling timepoint.
(§1) Tissue Sampling: Blood and brain samples were obtained at 0, 0.083, 0.25, 0.5, 1, 2 and 8 hours post-dose. At each timepoint, mice (3/timepoint) were euthanized in a […] chamber. Whole blood was obtained by cardiac puncture into Microtainer tubes containing heparin and immediately centrifuged for preparation of plasma; plasma was stored at −80° C. At each timepoint, whole brain samples were obtained by decapitation, rinsed in ice-cold phosphate-buffered saline and weighed. Brain samples were then immediately flash-frozen in liquid nitrogen and stored at −80° C.
(§2) The following table outlines the LC and MS/MS conditions employed:
The calibration range for the MRS4322 plasma concentration standard curve was 2.26-241 ng/mL. The calibration range for MRS4322 brain concentrations was 2.35-242 ng/mL.
(§3) For bioanalysis of brain concentrations of MRS4322, brain samples were homogenized in ice-cold phosphate-buffered saline in a 4× dilution. Aliquots of the resulting diluted brain homogenate were treated with acetonitrile and analyzed by LC-MS/MS. Because of the 4× homogenate dilution, the calibration range of the MRS4322 brain standard curve was translated to 9.40-968 ng/gm. In several samples, MRS4322 were detectable but fell below the brain LLOQ of 9.40 ng/gm but were above background; in these cases the final reported brain concentration was extrapolated based on MS peak heights.

[2] = Previous in vivo pharmacokinetic assessments of MRS2365 in mice; conditions: heparin as blood anticoagulant for plasma preparation, initial assessments
[3] = Pharmacokinetics of MRS4322 following intraperitoneal administration to mice (plasma and brain concentrations); format: in vivo; conditions: MRS4322 […] i.p.; for Plasma Concentration Mean / Plasma Concentration by Subject: BLQ = below 2.40 ng/mL; for Brain Concentration Mean / Brain Concentration by Subject: BLQ = below 9.64 ng/g; for Plasma Concentration by Subject / Brain Concentration by Subject: subjects A-C
Experimental: Animals: Female C576BL/6J mice weighing approximately 0.02 kg were used for this study, supplied by the University of Texas Health Sciences Center (San Antonio, TX). All studies were conducted under approved University of Texas Health Sciences Center IACUC protocols.
Drug Administration: MRS4322 was solubilized in DMSO and then diluted in saline to prepare dosing solution. Final dosing solution concentration of MRS4322 was 100 μM. A 100 μL volume of dosing solution was administered intraperitoneally to each mouse per 20 gram body weight; MRS4322 was administered intraperitoneally at 0.16 mg/kg or 0.5 μmol/kg. Three mice were administered MRS4322 for each sampling timepoint.
as §1, §2
The calibration range for the MRS4322 plasma concentration standard curve was 2.42-242 ng/mL. The calibration range for MRS4322 brain concentrations was 2.41-233 ng/mL.
as §3, with “to 9.64-932” for “to 9.40-968”, “MRS4322 was” for “MRS4322 were”, “of 9.64” for “of 9.40”

SMILES: CSc1nc(N)c2ncn([C@H]3[C@H](O)[C@H](O)[C@]4(COP(=O)(O)OP(=O)(O)O)C[C@H]34)c2n1 [MRS2365]
metabolic fate following intraperitoneal administration to mice ([1]; MRS2365 0.5 μmol/kg i.p., mice): rapidly and completely metabolized to MRS4322
in vivo clearance [2]: rapidly cleared at a rate approximating cardiac output

Plasma Concentration Mean ([3]; 0 h): BLQ
Brain Concentration Mean ([3]; 0 h): BLQ
Plasma Concentration by Subject ([3]; 0 h): BLQ
Brain Concentration by Subject ([3]; 0 h): BLQ
Brain Concentration Mean ([3]; 1 h): BLQ
Brain Concentration by Subject ([3]; 1 h): BLQ
Brain Concentration Mean ([3]; 2 h): BLQ
Brain Concentration by Subject ([3]; 2 h): BLQ
Plasma Concentration Mean ([3]; 8 h): BLQ
Brain Concentration Mean ([3]; 8 h): BLQ
Plasma Concentration by Subject ([3]; 8 h): BLQ
Brain Concentration by Subject ([3]; 8 h): BLQ
Plasma Concentration by Subject ([1]; 0 h): BLQ
Plasma Concentration Mean ([1]; 0 h): BLQ
Brain Concentration by Subject ([1]; 0.083 h): BLQ
Brain Concentration Mean ([1]; 0.083 h): BLQ
Brain Concentration by Subject ([1]; 1 h): BLQ
Brain Concentration Mean ([1]; 1 h): BLQ
Brain Concentration by Subject ([1]; 2 h): BLQ
Brain Concentration Mean ([1]; 2 h): BLQ
Plasma Concentration by Subject ([1]; 8 h): BLQ
Brain Concentration by Subject ([1]; 8 h): BLQ
Plasma Concentration Mean ([1]; 8 h): BLQ
Brain Concentration Mean ([1]; 8 h): BLQ
SMILES: CSc1nc(N)c2ncn([C@H]3[C@H](O)[C@H](O)[C@]4(CO)C[C@H]34)c2n1 [MRS4322]
